The results in this text go back to ChEMBL document CHEMBL1130879, “trans-3-Benzyl-4-hydroxy-7-chromanylbenzoic acid derivatives as antagonists of the leukotriene B4 (LTB4) receptor” (Bioorg Med Chem Lett, 1998).

Some results are limits rather than exact numbers.

In test [1] the target is Leukotriene B4 receptor (Cavia porcellus). Put plainly: Compound was evaluated for its ability to inhibit [3H]LTB4 binding to LTB4 receptors on guinea pig spleen membranes.
The target of test [2] is T1, Leukotriene B4 receptor (Homo sapiens, UniProt Q9NPC1+Q15722). Put plainly: Ability to inhibit LTB4-induced chemotaxis of isolated human neutrophils. Type of test: functional.
Test [3] has as its target T1, Leukotriene B4 receptor. Put plainly: Ability to inhibit LTB4 binding to LTB receptors on isolated human neutrophils. Type of test: protein assay.

Broadly, the IC50 is the concentration that gives 50% inhibition. In test [1], `CNC(=O)c1ccc(C(=O)O)c(-c2ccc3c(c2)OC[C@H](Cc2ccccc2)[C@H]3O)c1` showed an IC50 of 4700 nM.

Compound `COc1ccc(C(=O)O)c(-c2ccc3c(c2)OC[C@H](Cc2ccccc2)[C@H]3O)c1` displayed an IC50 in test [1] of 160 nM. For the compound `O=C(O)c1ccc(C(=O)O)c(-c2ccc3c(c2)OC[C@H](Cc2ccccc2)[C@H]3O)c1`, the IC50 in test [1] was greater than 1000 nM. Same read-out and setting: next, `O=C(O)c1ccccc1-c1ccc2c(c1)OC[C@H](Cc1ccccc1)[C@H]2O`: 120 nM. Take `O=C(O)c1ccc(Cl)cc1-c1ccc2c(c1)OC[C@H](Cc1ccccc1)[C@H]2O` (stereo in doubt; 5): the figures for the IC50 in test [2], in test [3] and in test [1] were 26 nM, 12 nM and 59 nM, respectively.
